Measurements as given in the supplement of paper PMC8960247.
± gives the standard error.

Key:
621-102 (TSC2-deficient) [1] = assay: relative viability vs DMSO; higher = less cytotoxic; conditions: serum: 10% FBS, 72 h
621-103 (TSC2-rescued) = assay: as above; conditions: serum: 10% FBS, 72 h
621-102 (TSC2-deficient) [2] = assay: relative viability vs DMSO (fraction); higher = less cytotoxic; conditions: serum: 0.1% FBS, 72 h
UMB1949 (TSC2-deficient) = assay: as above; conditions: serum: 0.1% FBS, 72 h;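 note: renal angiomyolipoma cell lines screened in 384-well plates, viability normalized per plate to DMSO-treated cells, each plate carrying 50 nM rapamycin and 1 µM staurosporine controls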

SMILES	relative viability (621-102 (TSC2-deficient) [1]; 0.0001 µM) [%]	relative viability (621-102 (TSC2-deficient) [1]; 0.001 µM) [%]	relative viability (621-102 (TSC2-deficient) [1]; 0.01 µM) [%]	relative viability (621-102 (TSC2-deficient) [1]; 0.1 µM) [%]	relative viability (621-102 (TSC2-deficient) [1]; 1 µM) [%]	relative viability (621-102 (TSC2-deficient) [1]; 10 µM) [%]	relative viability (621-103 (TSC2-rescued); 0.0001 µM) [%]	relative viability (621-103 (TSC2-rescued); 0.001 µM) [%]	relative viability (621-103 (TSC2-rescued); 0.01 µM) [%]	relative viability (621-103 (TSC2-rescued); 0.1 µM) [%]	relative viability (621-103 (TSC2-rescued); 1 µM) [%]	relative viability (621-103 (TSC2-rescued); 10 µM) [%]	relative viability (621-102 (TSC2-deficient) [2]; 0.0128 nM)	relative viability (621-102 (TSC2-deficient) [2]; 0.064 nM)	relative viability (621-102 (TSC2-deficient) [2]; 0.32 nM)	relative viability (621-102 (TSC2-deficient) [2]; 1.6 nM)	relative viability (621-102 (TSC2-deficient) [2]; 8 nM)	relative viability (621-102 (TSC2-deficient) [2]; 40 nM)	relative viability (621-102 (TSC2-deficient) [2]; 200 nM)	relative viability (621-102 (TSC2-deficient) [2]; 1000 nM)	relative viability (621-102 (TSC2-deficient) [2]; 5000 nM)	relative viability (UMB1949 (TSC2-deficient); 0.0128 nM)	relative viability (UMB1949 (TSC2-deficient); 0.064 nM)	relative viability (UMB1949 (TSC2-deficient); 0.32 nM)	relative viability (UMB1949 (TSC2-deficient); 1.6 nM)	relative viability (UMB1949 (TSC2-deficient); 8 nM)	relative viability (UMB1949 (TSC2-deficient); 40 nM)	relative viability (UMB1949 (TSC2-deficient); 200 nM)	relative viability (UMB1949 (TSC2-deficient); 1000 nM)	relative viability (UMB1949 (TSC2-deficient); 5000 nM)
Cn1cc(CNCC2CCN(c3ncc(C(=O)NO)cn3)CC2)c2ccccc21	95.9 ± 2.5	86.5 ± 1.7	59.3 ± 0.89	36.84 ± 0.15	25.2 ± 0.97	18.08 ± 0.036	91.4 ± 0.56	78.47 ± 0.52	44.98 ± 0.16	3.52 ± 0.045	2.06 ± 0.065	1.27 ± 0.15	1.02	0.835	0.708	0.585	0.288	0.0238	0.00256	0.000673	0.000759	1.08	0.949	0.9	0.687	0.00555	0.00221	0.0013	0.000408	0.000355
Nc1nc2[nH]cc(CCc3ccc(C(=O)N[C@@H](CCC(=O)O)C(=O)O)cc3)c2c(=O)[nH]1 [Pemetrexed disodium]	107 ± 2.3	101 ± 4.2	107 ± 5.4	93.8 ± 4.3	94.1 ± 6.1	81.27 ± 0.71	102 ± 2.4	92.3 ± 6.5	102 ± 1.6	106 ± 1.4	104.4 ± 0.47	88.6 ± 7.4	1.25	1.15	1.17	1.17	1.09	0.126	0.0307	0.0251	0.0247	1.05	0.979	1.03	0.984	1.02	0.0167	0.00471	0.00243	0.000722
CCN1CCN(Cc2ccc(-c3cc4c(N[C@H](C)c5ccccc5)ncnc4[nH]3)cc2)CC1 [AEE788]	106 ± 2.1	107.3 ± 1	106 ± 4.4	104 ± 1.6	100 ± 3.6	36.7 ± 12	94.8 ± 1.2	107.1 ± 0.38	103.4 ± 0.79	102 ± 3.6	100 ± 3.8	10.7 ± 1	1.06	0.968	1.01	0.786	0.612	0.64	0.156	0.034	0.00903	1.02	0.971	1	1.07	0.964	1.01	0.767	0.305	0.00689
c1cncc(CN2CCC(n3ncc4c(N5CCOCC5)nc(-c5ccc6[nH]ccc6c5)nc43)CC2)c1 [WAY-600]	89.809 ± 0.075	104 ± 2.2	99.7 ± 2.1	100 ± 1.8	82.5 ± 1	2.21 ± 0.054	99.7 ± 2.6	97.8 ± 4.8	103 ± 3.9	98.1 ± 1.8	54.5 ± 2.2	7.78 ± 0.25	1.07	1.25	1.04	1.18	1.21	1.19	0.798	0.345	0.00768	0.882	0.972	1.04	0.972	1.02	0.933	0.892	0.354	0.00636
COCC[n+]1c2c(n(Cc3cnccn3)c1C)C(=O)c1ccccc1C2=O [YM155]	119 ± 4.4	123 ± 2.9	85.19 ± 0.73	14.7 ± 0.34	2.3 ± 0.11	1.07 ± 0.06	103 ± 1.1	97.14 ± 0.26	6.98 ± 0.72	3.13 ± 0.25	1.38 ± 0.11	1.32 ± 0.092	1.26	1.18	1.05	1.14	1.01	0.797	0.0467	0.0022	0.000631	0.913	0.906	0.926	0.0628	0.00285	0.00186	0.00176	0.000862	0.000862
CC(C)C[C@@H](C(=O)N[C@H](C(=O)OC1CCCC1)c1ccccc1)[C@H](O)C(=O)NO [CHR-2797]	112 ± 1.6	116 ± 2.4	114.53 ± 0.03	102 ± 1.6	89.8 ± 1.5	82 ± 2.1	103 ± 2.1	105.3 ± 0.65	115 ± 1.4	111 ± 7.5	104.4 ± 0.14	89.6 ± 2.7	0.86	0.866	0.628	0.884	0.614	0.512	0.414	0.345	0.144	1.06	0.998	0.978	1.02	0.982	0.804	0.875	0.595	0.0151
CO[C@H]1C[C@@H]2CC[C@@H](C)[C@@](O)(O2)C(=O)C(=O)N2CCCC[C@H]2C(=O)O[C@H]([C@H](C)C[C@@H]2CC[C@@H](OP(C)(C)=O)[C@H](OC)C2)CC(=O)[C@H](C)/C=C(\C)[C@@H](O)[C@@H](OC)C(=O)[C@H](C)C[C@H](C)/C=C/C=C/C=C/1C [Deforolimus(MK-8669)]	47.2 ± 1.4	56.5 ± 2.7	56.6 ± 1.4	51.2 ± 2	47.9 ± 3	48.8 ± 5.1	64.9 ± 4.2	64.215 ± 0.057	68.4 ± 2.7	69.1 ± 1.9	64.44 ± 0.59	67.4 ± 1.6	0.609	0.552	0.523	0.466	0.466	0.493	0.373	0.281	0.284	0.988	0.964	0.973	0.932	0.899	0.802	0.693	0.381	0.459
